{"source": "patent US9422493B2", "about": "“Tritylated alkyl aryl ethers” (Rohm and Haas Company, priority 2012, dated 2016)", "type_in_all_cases": "physicochemical", "key": {"[1]": {"experiment": "Solubility studies: 0.1 g marker candidate in 0.9 g solvent, solution stability at 60 C, room temperature and -10 C", "procedure": "Solutions were made from 0.1 grams of marker candidate and 0.9 grams of solvent. The mixtures were warmed briefly to 60° C. to completely dissolve the marker candidate, then the solutions were cooled to room temperature. The solutions were then placed into a −10° C. freezer, and the stability of the solutions was monitored for at least 7 days.\nDPGME is dipropylene glycol mono-methyl ether and NMP is N-methylpyrrolidone; AROMATIC 200 and AROMATIC 150 are mixed aromatic solvents available from Exxon Mobil Corp."}, "[2]": {"experiment": "Stability and extractability of marker in xylenes solution against laundering agents, analysed by GC", "conditions": "2000 mg/kg in xylenes, room temperature, 8 hours"}, "[3]": {"experiment": "Sunlight stability of marker solution, checked by GC"}, "[4]": {"conditions": "75:25 Aromatic 200H: cyclohexanone"}, "[5]": {"conditions": "75:25 Aromatic 200H: o-sec-butylphenol"}}, "data": [{"smiles": "CCCCCCCCCCCCOc1c(C(C)CC)cc(C(c2ccccc2)(c2ccccc2)c2ccccc2)cc1C(C)CC", "note": "(centres unmarked)", "values": [{"measurement": "SOLUBILITY BEHAVIOR −10 C.", "setting": "[1]; [4]", "value": "sol 7D sol 7D"}, {"measurement": "SOLUBILITY BEHAVIOR −10 C.", "setting": "[1]; [5]", "value": "sol 7D sol 7D"}]}, {"smiles": "CCCCCCCCCCCCOc1c(C(C)(C)C)cc(C(c2ccccc2)(c2ccccc2)c2ccccc2)cc1C(C)(C)C", "values": [{"measurement": "SOLUBILITY BEHAVIOR −10 C.", "setting": "[1]; [4]", "value": "sol 7D sol 7D"}, {"measurement": "SOLUBILITY BEHAVIOR −10 C.", "setting": "[1]; [5]", "value": "sol 7D sol 7D"}]}, {"smiles": "CCCCCCCCCCCCOc1ccc(C(c2ccccc2)(c2ccccc2)c2ccccc2)cc1C(C)(C)C", "values": [{"measurement": "SOLUBILITY BEHAVIOR −10 C.", "setting": "[1]; [4]", "value": "sol 7D sol 7D"}, {"measurement": "SOLUBILITY BEHAVIOR −10 C.", "setting": "[1]; [5]", "value": "sol 7D sol 7D"}]}, {"smiles": "CCCCCCCCCCCCOc1c(C(C)C)cc(C(c2ccccc2)(c2ccccc2)c2ccccc2)cc1C(C)C", "values": [{"measurement": "SOLUBILITY BEHAVIOR −10 C.", "setting": "[1]; [4]", "value": "xtls 4D"}]}, {"smiles": "CCCCCCCCCCOc1ccc(C(c2ccccc2)(c2ccccc2)c2ccccc2)cc1C(C)CC", "note": "(centres unmarked) [DecTsBuPh]", "values": [{"measurement": "[…] −10 C.", "setting": "[1]; Aromatic 200", "value": "sol 33D"}, {"measurement": "[…] −10 C.", "setting": "[1]; DPGDME", "value": "sol 33D"}, {"measurement": "% Change", "setting": "[2]; 2% Charcoal", "value": "−0.76", "unit": "%"}, {"measurement": "% Change", "setting": "[2]; 5% Bleach", "value": 1.08, "unit": "%"}, {"measurement": "% Change", "setting": "[2]; 5% H2SO4, 5% by weight", "value": "−0.04", "unit": "%"}, {"measurement": "% Change", "setting": "[2]; 5% NaOH, 5% by weight, GC vs stock solution", "value": 0.10, "unit": "%"}, {"measurement": "% Change", "setting": "[2]; 50% NaOH, 5% by weight", "value": 0.60, "unit": "%"}, {"measurement": "% Change", "setting": "[2]; 98% H2SO4, 5% by weight", "value": "−1.84", "unit": "%"}, {"measurement": "% Change", "setting": "[2]; Fuller's Earth", "value": 0.79, "unit": "%"}, {"measurement": "% Change", "setting": "[2]; Iron Specks (2% metal specs wt/wt)", "value": 1.76, "unit": "%"}, {"measurement": "% Change", "setting": "[3]; Apr. 5, 2012", "value": "−1.90", "unit": "%"}, {"measurement": "% Change", "setting": "[3]; Apr. 13, 2012", "value": 2.40, "unit": "%"}, {"measurement": "% Change", "setting": "[3]; Apr. 23, 2012", "value": 0.90, "unit": "%"}, {"measurement": "% Change", "setting": "[3]; May 8, 2012", "value": "−1.40", "unit": "%"}, {"measurement": "% Change", "setting": "[3]; May 15, 2012", "value": 1.80, "unit": "%"}]}, {"smiles": "CCCCCCCCCCCCOc1ccc(C(c2ccccc2)(c2ccccc2)c2ccccc2)cc1C(C)C", "values": [{"measurement": "SOLUBILITY BEHAVIOR −10 C.", "setting": "[1]; [4]", "value": "sol 7D"}, {"measurement": "SOLUBILITY BEHAVIOR −10 C.", "setting": "[1]; [5]", "value": "xtls 3D"}]}, {"smiles": "CCCCCCCCCCCCOc1c(C(C)(C)C)cc(C(C)(C)C)cc1C(c1ccccc1)(c1ccccc1)c1ccccc1", "values": [{"measurement": "SOLUBILITY BEHAVIOR −10 C.", "setting": "[1]; [4]", "value": "xtls 6D xtls 6D"}, {"measurement": "SOLUBILITY BEHAVIOR −10 C.", "setting": "[1]; [5]", "value": "xtls 6D xtls 6D"}]}]}
